Test results taken from the NIST ThermoML archive (doi:10.1021/je050498q).

Experiments:
[1] = refractive index (Na D-line) (dimensionless); wn = mass fraction of the nth substance listed; settings: 101 kPa, Liquid
[2] = wn = mass fraction of the nth substance listed; settings: 101 kPa, Liquid

O=C([O-])[C@H](O)[C@@H](O)C(=O)[O-].[Na+].[Na+] [disodium L-tartrate] + O
Settings	refractive index, 298.15 K	refractive index, 308.15 K	refractive index, 318.15 K	viscosity, 298.15 K [mPa·s]	viscosity, 308.15 K [mPa·s]	viscosity, 318.15 K [mPa·s]
[1], w1 = 0.0099	1.3343	1.3331	1.3318	–	–	–
[1], w1 = 0.0192	1.336	1.3346	1.3335	–	–	–
[1], w1 = 0.0282	1.3373	1.3363	1.3351	–	–	–
[1], w1 = 0.0371	1.3389	1.3378	1.3367	–	–	–
[1], w1 = 0.046	1.3405	1.3393	1.3381	–	–	–
[1], w1 = 0.0547	1.3418	1.3408	1.3396	–	–	–
[1], w1 = 0.0625	1.3432	1.3421	1.341	–	–	–
[1], w1 = 0.0714	1.3447	1.3435	1.3425	–	–	–
[1], w1 = 0.0793	1.346	1.3449	1.3439	–	–	–
[1], w1 = 0.0872	1.3475	1.3462	1.3452	–	–	–
[1], w1 = 0.0948	1.3486	1.3475	1.3464	–	–	–
[1], w1 = 0.1026	1.3502	1.3488	1.3479	–	–	–
[1], w1 = 0.1098	1.3511	1.35	1.349	–	–	–
[1], w1 = 0.1169	1.3526	1.3512	1.3502	–	–	–
[1], w1 = 0.1223	1.3535	1.3523	1.3513	–	–	–
[1], w1 = 0.1314	1.3551	1.3537	1.3526	–	–	–
[1], w1 = 0.1361	1.3557	1.3545	1.3536	–	–	–
[1], w1 = 0.1437	1.3572	1.356	1.3548	–	–	–
[1], w1 = 0.1514	1.3584	1.3572	1.3562	–	–	–
[1], w1 = 0.1577	1.3594	1.3582	1.3573	–	–	–
[1], w1 = 0.1646	1.3607	1.3596	1.3587	–	–	–
[1], w1 = 0.1697	1.3616	1.3606	1.3595	–	–	–
[1], w1 = 0.1769	1.363	1.3617	1.3607	–	–	–
[1], w1 = 0.1825	1.3639	1.3627	1.3616	–	–	–
[1], w1 = 0.1886	1.3649	1.3637	1.3627	–	–	–
[1], w1 = 0.1941	1.366	1.3646	1.3636	–	–	–
[1], w1 = 0.1996	1.3668	1.3655	1.3644	–	–	–
[1], w1 = 0.2048	1.3677	1.3664	1.3654	–	–	–
[1], w1 = 0.2116	1.3689	1.3675	1.3666	–	–	–
[1], w1 = 0.2167	1.3697	1.3685	1.3675	–	–	–
[1], w1 = 0.2221	1.3707	1.3696	1.3684	–	–	–
[1], w1 = 0.2281	1.3719	1.3707	1.3695	–	–	–
[1], w1 = 0.2328	1.3728	1.3715	1.3703	–	–	–
[1], w1 = 0.243	1.3744	1.3731	1.372	–	–	–
[1], w1 = 0.2493	1.3755	1.3744	1.3732	–	–	–
[1], w1 = 0.2577	1.377	1.3759	1.3749	–	–	–
[1], w1 = 0.2622	1.3778	1.3765	1.3757	–	–	–
[1], w1 = 0.2681	1.379	1.3777	1.3765	–	–	–
[1], w1 = 0.2757	1.3802	1.3791	1.3778	–	–	–
[1], w1 = 0.2859	1.3821	1.3809	1.3798	–	–	–
[1], w1 = 0.2979	1.384	1.3829	1.3819	–	–	–
[1], w1 = 0.3085	1.3861	1.3848	1.3841	–	–	–
[2], w1 = 0.01986	–	–	–	0.932	0.773	0.644
[2], w1 = 0.03991	–	–	–	0.995	0.824	0.683
[2], w1 = 0.06024	–	–	–	1.06	0.885	0.726
[2], w1 = 0.08009	–	–	–	1.137	0.952	0.782
[2], w1 = 0.09999	–	–	–	1.23	1.02	0.832
[2], w1 = 0.12	–	–	–	1.321	1.098	0.894
[2], w1 = 0.14	–	–	–	1.431	1.184	0.959
[2], w1 = 0.16	–	–	–	1.56	1.278	1.024
[2], w1 = 0.1795	–	–	–	1.706	1.38	1.101
[2], w1 = 0.2007	–	–	–	1.891	1.519	1.215
[2], w1 = 0.2196	–	–	–	2.086	1.669	1.334
[2], w1 = 0.2402	–	–	–	2.301	1.857	1.475
[2], w1 = 0.26	–	–	–	2.563	2.055	1.647
[2], w1 = 0.2806	–	–	–	2.897	2.305	1.846
